Reference: patent publication US20250382373A1, “ANTI-EGFR/MET ANTIBODIES AND USES THEREOF” (Biocytogen Pharmaceuticals (Beijing) Co., Ltd., priority 2022, published 2025)

How the values were obtained:
HCC827 cells = experiment: Internalization of antibodies targeting EGFR and/or MET in HCC827 cells; assay type: cell-based, human; details: HCC827, 1 hour
Experimental: (§1) Anti-EGFR antibodies, anti-MET antibodies, or anti-EGFR/MET bispecific antibodies, together with the pHAb-Goat anti-human IgG secondary antibody were added to NCI-H1975 cells (ATCC, Reference No.: CRL-5908), HCC827 cells (ATCC, Reference No.: CRL-2868) and NCI-H292 (ATCC, Reference No.: CRL-1848) cells, respectively, and incubated for 1 hour. The cells were centrifuged and washed with FACS buffer. MFI was measured using a flow cytometer. Endocytosis rates of antibodies were calculated. For isotype control (ISO), an antibody targeting an irrelevant target protein was used.

NCI-H292 cells [1] = experiment: Internalization of antibodies targeting EGFR and/or MET in NCI-H292 cells; assay type: cell-based, human; details: NCI-H292, 1 hour
Experimental: as §1

[2] = tested on: human lung cancer cell line NCI-H1975; experiment: In vitro killing activity, IncuCyte; assay type: cell-based
Experimental: Different concentrations of purified antibodies (10 μg/mL, 3.33 μg/mL, 1.11 μg/mL, 0.37 μg/mL, 0.123 μg/mL, 0.041 μg/mL, 0.013 μg/mL, and 0.004 μg/mL) and corresponding ADCs were used to treat human lung cancer cell line NCI-H1975 (5×10^3) cultured in a cell culture plate, and the killing activity was detected after 72 hours of incubation in IncuCyte (Sartorius AG, IncuCyte® S3).

NCI-H1975 cells = experiment: NCI-H1975 xenograft model in B-NDG mice; assay type: in vivo; details: Table 21 study
Experimental: The lengths of the long axis and the short axis of the tumor were measured and the volume of the tumor was calculated as 0.5×(long axis)×(short axis)^2. The tumor growth inhibition (TGI) was calculated using the following formula: TGI (%)=[1−(Ti−T0)/(Vi−V0)]×100. Ti is the average tumor volume in the treatment group on day i. T0 is the average tumor volume in the treatment group on day zero. Vi is the average tumor volume in the control group on day i. V0 is the average tumor volume in the control group on day zero. T-test was performed for statistical analysis. […] P<0.05 is a threshold to indicate significant difference.

SNU-5 cells = experiment: SNU-5 xenograft model (gastric carcinoma) in B-NDG mice; assay type: in vivo; details: for Tumor volume Day 10: 10 days after grouping; for TGI (%): Day 24; for Tumor volume Day 0: day of grouping; for Tumor volume Day 24: end of experiment; for Survival: surviving/total mice
[3] = tested on: patient-derived lung tumor fragments (PDX001); experiment: Human lung PDX001 model; assay type: in vivo, B-NDG mice; details: for TGI (%): Day 23; for Tumor volume Day 0: day of grouping; for Survival: surviving/total mice
[4] = tested on: patient-derived lung tumor fragments (PDX002); experiment: Human lung PDX002 model; assay type: in vivo, B-NDG mice; details: once a week x2; for Tumor volume Day 0: day of grouping; for Survival: surviving/total mice
Experimental: The control group mice were injected with PBS (G1).

[5] = tested on: patient-derived pancreatic tumor fragments (PDX004); experiment: Human pancreatic PDX004 model; assay type: in vivo, B-NDG mice; details: Day 35
Description: The tested antibody and the frequency of administration was similar to Table 28.

[6] = tested on: patient-derived pancreatic tumor fragments (PDX003); experiment: Human pancreatic PDX003 model; details: for TGI (%): Day 21; for Tumor volume Day 0: day of grouping; for Survival: surviving/total mice
Experimental: The antibodies were tested for their effect in two human pancreatic PDX (PDX003 and PDX004) models.
In PDX003 model, B-NDG mice were engrafted in the right flank with patient-derived pancreatic tumor fragments (2 mm×2 mm×2 mm). When the tumors in the mice reached a volume of about 300-400 mm^3, the mice were randomly placed into different groups based on the volume of the tumor.

NCI-H292 cells [7] = experiment: NCI-H292 xenograft model in B-NDG mice; details: for Tumor volume Day 14: 14 days after grouping; for Tumor volume Day 14 / Tumor volume Day 0 / Tumor volume Day 24: 1×10^7 NCI-H292 cells, about 300 mm^3 at grouping; for TGI (%): Day 24; for TGI (%) / Survival: 1×10^7 NCI-H292 cells experiment; for Tumor volume Day 0: day of grouping; for Tumor volume Day 24: end of experiment; for Survival: surviving/total mice
Experimental: The antibodies were tested for their effect on tumor growth in vivo in a model of lung carcinoma. About 1×10^7 NCI-H292 cells were injected subcutaneously in B-NDG mice. When the tumor in mice reached a volume of about 300 mm^3, the mice were randomly placed into different groups based on the volume of the tumor. The mice were then injected with PBS or antibodies by intravenous (i.v.) administration. The frequency of administration was once a week (2 administrations in total).

## Amivantamab analog: analog of Amivantamab, fully human bispecific antibody targeting EGFR and MET; SEQ ID NOs: 77-80
HCC827 cells
  MFI: 30401
  Positive Population: 88.90%
NCI-H292 cells [1]
  MFI: 13815
  Positive Population: 67.00%
[2]; NCI-H1975, 72 hours
  IC50: Not detected
[2]; highest concentration of 10 μg/m
  ability to kill NCI-H1975: neither E-6C4-M-2F11 nor Amivantamab analog has the ability to kill
NCI-H1975 cells; 10 mg/kg i.v. QW x2
  Survival: 5/5
  Tumor volume Day 11: 143 ± 20 mm^3
  Tumor volume Day 21: 294 ± 40 mm^3
NCI-H1975 cells; 10 mg/kg i.v. QW x2, Day 21
  TGI (%): 98.4%
NCI-H1975 cells; 10 mg/kg i.v. QW x2, day of grouping
  Tumor volume Day 0: 260 ± 19 mm^3
SNU-5 cells; 3 mg/kg i.v. QW x2
  Tumor volume Day 10: 294 ± 10 mm^3
  TGI (%): 8.4%
  Tumor volume Day 0: 200 ± 5 mm^3
  Tumor volume Day 24: 1111 ± 64 mm^3
  Survival: 5/5
SNU-5 cells; 10 mg/kg i.v. QW x2
  Tumor volume Day 10: 72 ± 9 mm^3
  TGI (%): 106.4%
  Tumor volume Day 0: 200 ± 9 mm^3
  Tumor volume Day 24: 136 ± 35 mm^3
  Survival: 5/5
[3]; 1 mg/kg i.v. QW x2
  Tumor volume Day 12: 1144 ± 86 mm^3
  Tumor volume Day 23: 3077 ± 235 mm^3
  TGI (%): −24.7%
  Tumor volume Day 0: 223 ± 18 mm^3
  Survival: 4/6
[3]; 3 mg/kg i.v. QW x2
  Tumor volume Day 12: 1448 ± 195 mm^3
  Tumor volume Day 23: 2465 ± 145 mm^3
  TGI (%): 2.0%
  Tumor volume Day 0: 223 ± 18 mm^3
  Survival: 3/6
[3]; 10 mg/kg i.v. QW x2
  Tumor volume Day 12: 1132 ± 77 mm^3
  Tumor volume Day 23: 2666 ± 212 mm^3
  TGI (%): −6.8%
  Tumor volume Day 0: 223 ± 22 mm^3
  Survival: 6/6
[4]; 1 mg/kg
  Tumor volume Day 10: 805 ± 99 mm^3
  Tumor volume Day 21: 2279 ± 253 mm^3
  Tumor volume Day 0: 267 ± 12 mm^3
  Survival: 0/6
[4]; 3 mg/kg
  Tumor volume Day 10: 686 ± 55 mm^3
  Tumor volume Day 21: 1791 ± 214 mm^3
  Tumor volume Day 35: 3509 ± 239 mm^3
  Tumor volume Day 0: 267 ± 13 mm^3
  Survival: 3/6
[4]; 3 mg/kg, Day 35
  TGI (%): −7.1%
[5]; 1 mg/kg
  TGI (%): −13.3%
[5]; 3 mg/kg
  TGI (%): −0.6%
[5]; 10 mg/kg
  TGI (%): 4.1%
[6]; 1 mg/kg i.v. QW x2
  Tumor volume Day 11: 811 ± 65 mm^3
  Tumor volume Day 21: 1410 ± 130 mm^3
  TGI (%): −2.0%
  Tumor volume Day 0: 340 ± 18 mm^3
  Survival: 6/6
[6]; 3 mg/kg i.v. QW x2
  Tumor volume Day 11: 705 ± 62 mm^3
  Tumor volume Day 21: 1216 ± 96 mm^3
  TGI (%): 16.5%
  Tumor volume Day 0: 340 ± 18 mm^3
  Survival: 6/6
[6]; 10 mg/kg i.v. QW x2
  Tumor volume Day 11: 666 ± 60 mm^3
  Tumor volume Day 21: 1146 ± 123 mm^3
  TGI (%): 23.2%
  Tumor volume Day 0: 340 ± 16 mm^3
  Survival: 6/6
NCI-H292 cells [7]; 1 mg/kg i.v. QW x2
  Tumor volume Day 14: 1338 ± 243 mm^3
  TGI (%): 0.4%
  Tumor volume Day 0: 311 ± 14 mm^3
  Tumor volume Day 24: 2485 ± 536 mm^3
  Survival: 4/5
NCI-H292 cells [7]; 3 mg/kg i.v. QW x2
  Tumor volume Day 14: 1380 ± 320 mm^3
  TGI (%): 26.2%
  Tumor volume Day 0: 314 ± 11 mm^3
  Tumor volume Day 24: 1925 ± 389 mm^3
  Survival: 4/5
NCI-H292 cells [7]; 10 mg/kg i.v. QW x2
  Tumor volume Day 14: 915 ± 150 mm^3
  TGI (%): 44.5%
  Tumor volume Day 0: 327 ± 11 mm^3
  Tumor volume Day 24: 1538 ± 267 mm^3
  Survival: 4/5
